Columns and labels:
[1] = Inhibition of c-Myc/Max binding to DNA (unknown origin) by fluorescence polarization assay; design: species or system Homo sapiens
HT-29 [2] = assay: Antitumor activity against human HT-29 cells xenografted in BALB/c mouse assessed as tumor growth inhibition at 40 mg/kg, ip administered daily for 3 weeks by caliper method; format: functional; conditions: HT-29, 504 h, read-out: TGI
Homo sapiens = species: Homo sapiens; assay: Inhibition of human Myc (353 to 439 residues)/Max(S) (151 residues) expressed in Escherichia coli BL21(DE3) binding to biotinylated double-stranded DNA oligonucleotide 5'-CACCCGGTCACTGGCCTACAC-3' (unknown origin) preincubated for 90 mins followed by oligonucleotide addition for 25 mins by EMSA; conditions: time 115.0 min
HCT-116 = assay: cells; conditions: Homo sapiens, HCT-116, 72 h
Description: Antiproliferative activity against human HCT-116 cells incubated for 72 hrs by MTT assay

HT-29 [3] = assay: cells; conditions: Homo sapiens, HT-29, 72 h
Description: Antiproliferative activity against human HT-29 cells incubated for 72 hrs by MTT assay

HCT-15 = assay: Antiproliferative activity against human HCT-15 cells incubated for 72 hrs by MTT assay; format: functional, cell-based; conditions: HCT-15, 72 h
HT-29 [4] = assay: Inhibition of colony formation in human HT-29 cells measured after 14 days by crystal violet staining based assay; format: functional, cell-based; conditions: dose 0.25-2 µM, time 14.0 day
HCT-8 = assay: Antiproliferative activity against human HCT-8 cells incubated for 72 hrs by MTT assay; format: functional, cell-based; conditions: HCT-8, 72 h
HT-29 [5] = assay: Downregulation of c-Myc expression in human […] cells incubated for 24 hrs by Western blot analysis; format: functional, cell-based; conditions: dose 2.5-10 µM
[6] = Toxicity in BALB/c mouse xenografted with human HT-29 cells assessed as kidney damage at 40 mg/kg, ip measured after 21 days by H and E staining based assay; format: organism-based; conditions: in vivo, 504 h, time 21 day
[7] = Toxicity in BALB/c mouse xenografted with human HT-29 cells assessed as heart damage at 40 mg/kg, ip measured after 21 days by H and E staining based assay; format: organism-based; conditions: in vivo, 504 h, time 21 day
[8] = Toxicity in BALB/c mouse xenografted with human HT-29 cells assessed as lung damage at 40 mg/kg, ip measured after 21 days by H and E staining based assay; format: organism-based; conditions: in vivo, 504 h, time 21 day
[9] = Toxicity in BALB/c mouse xenografted with human HT-29 cells assessed as body weight loss at 40 mg/kg, ip measured after 12 days; format: organism-based; conditions: in vivo, 288 h, time 12 day
[10] = Toxicity in BALB/c mouse xenografted with human HT-29 cells assessed as liver damage at 40 mg/kg, ip measured after 21 days by H and E staining based assay; format: organism-based; conditions: in vivo, 504 h, time 21 day
c-Myc/c-Max = c-Myc/c-Max (Homo sapiens, UniProt P01106+P61244); assay: Inhibition of c-Myc to Max protein dimerization (unknown origin) by electrophoretic mobility shift assay
c-Myc/c-Max, sequence (P01106 whole entry): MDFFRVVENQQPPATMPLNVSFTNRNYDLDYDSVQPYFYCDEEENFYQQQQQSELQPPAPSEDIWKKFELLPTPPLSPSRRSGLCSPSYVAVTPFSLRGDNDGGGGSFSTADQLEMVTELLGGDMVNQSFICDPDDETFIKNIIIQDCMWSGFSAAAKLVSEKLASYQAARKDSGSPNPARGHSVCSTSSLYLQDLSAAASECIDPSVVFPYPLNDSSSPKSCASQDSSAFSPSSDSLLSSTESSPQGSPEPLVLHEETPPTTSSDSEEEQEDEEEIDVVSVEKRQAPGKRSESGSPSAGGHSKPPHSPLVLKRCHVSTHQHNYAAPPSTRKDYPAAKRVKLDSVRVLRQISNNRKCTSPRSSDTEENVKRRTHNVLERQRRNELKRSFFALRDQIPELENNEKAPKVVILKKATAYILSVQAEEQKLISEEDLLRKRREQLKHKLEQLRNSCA
c-Myc/c-Max, sequence (P61244 whole entry): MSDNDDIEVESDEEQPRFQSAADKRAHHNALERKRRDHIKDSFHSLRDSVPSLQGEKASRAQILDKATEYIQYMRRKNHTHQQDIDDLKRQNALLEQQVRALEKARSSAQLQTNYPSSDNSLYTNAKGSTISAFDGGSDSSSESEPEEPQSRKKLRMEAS

| Structure (SMILES) | IC50 (HCT-116) [µM] | IC50 (HT-29 [3]) [µM] | IC50 (HCT-15) [µM] | IC50 (HCT-8) [µM] | other results |
| --- | --- | --- | --- | --- | --- |
| C=C(OCC)c1cnn(-c2ccccc2)c1NC(=O)c1cc2nc(-c3ccco3)cc(C(F)(F)Cl)n2n1 |  |  |  |  | IC50 [1]: 40 µM |
| COc1ccc(CCNCc2c(OC)cc(Oc3ccc(Nc4ccccc4)cc3)cc2OC)cc1 | 1.95 | 1.36 | 3.15 | 4.81 | inhibition in vivo at 40 mg/kg (HT-29 [2]): 55.8%; inhibition (Homo sapiens): Dose-Dependent Effect; inhibition (HT-29 [4]): Dose-Dependent Effect; Activity (HT-29 [5]): Dose-Dependent Effect |
| COc1cc(Oc2ccc(Nc3ccccc3)cc2)cc(OC)c1CNCCc1ccc(Br)cc1 | 2.96 | 2.38 | 6.97 | 7.13 |  |
| COc1ccc(-c2ccc(Oc3cc(OC)c(CNCCc4ccc(C(F)(F)F)cc4)c(OC)c3)cc2)cc1 | 2.62 | 2.19 | 2.34 | 6.45 |  |
| COc1cc(Oc2ccc(Nc3ccc(Cc4ccccc4)cc3)cc2)cc(OC)c1CNCCc1ccc(C(F)(F)F)cc1 | 5.21 | 1.13 | 4.48 | 6.57 |  |
| COc1cc(Oc2ccc(Nc3ccc(-c4ccccc4)cc3)cc2)cc(OC)c1CNCCc1ccc(C(F)(F)F)cc1 | 3.85 | 1.7 | 3.41 | 5.88 |  |
| COc1cc(Oc2ccc(Nc3ccccc3)cc2)cc(OC)c1CNCCc1ccc(F)cc1 | 3.13 | 2.79 | 5.64 | 6.32 |  |
| COc1cc(Oc2ccc(-c3ccc(Cl)cc3)cc2)cc(OC)c1CNCCc1ccc(C(F)(F)F)cc1 | 5.05 | 2.06 | 3.23 | 6.09 |  |
| COc1cc(Oc2ccc(Nc3ccc(CO)cc3)cc2)cc(OC)c1CNCCc1ccc(C(F)(F)F)cc1 | 3.22 | 1.03 | 3.33 | 3.23 |  |
| COc1ccc(Nc2ccc(Oc3cc(OC)c(CNCCc4ccc(C(F)(F)F)cc4)c(OC)c3)cc2)cc1OC | 1.35 | 0.92 | 3.35 | 3.13 |  |
| CCOc1ccc(Nc2ccc(Oc3cc(OC)c(CNCCc4ccc(C(F)(F)F)cc4)c(OC)c3)cc2)cc1 | 3.08 | 0.86 | 5.3 | 5.32 |  |
| COc1cc(Oc2ccc(-c3ccc(C)cc3)cc2)cc(OC)c1CNCCc1ccc(C(F)(F)F)cc1 | 2.41 | 1.35 | 2.32 | 8.95 |  |
| COc1cc(Oc2ccc(Nc3ccc(C(=O)C(F)(F)F)cc3)cc2)cc(OC)c1CNCCc1ccc(C(F)(F)F)cc1 | 2.43 | 1.93 | 1.89 | 7.86 |  |
| COc1cc(Oc2ccc(Nc3ccc(C(F)(F)F)cc3)cc2)cc(OC)c1CNCCc1ccc(C(F)(F)F)cc1 | 6.46 | 1.31 | 3.24 | 8.49 |  |
| O=c1[nH]cc(F)c(=O)[nH]1 [FLUOROURACIL] | 6.5 | 9.19 | 8.23 | > 20 | inhibition in vivo at 40 mg/kg (HT-29 [2]): 50.2%; Activity [6]: Toxic; Activity [7]: Toxic; Activity [8]: Toxic; Activity [9]: Toxic; Activity [10]: Toxic |
| COc1cc(Oc2ccc(Nc3ccccc3)cc2)cc(OC)c1CNCCc1ccc(C(F)(F)F)cc1 | 1.75 | 1.05 | 2.78 | 4.23 |  |
| COc1cc(Oc2ccc(Nc3ccccc3)cc2)cc(OC)c1CNCCc1ccc(Cl)cc1 | 4.98 | 2.44 | 6.64 | 6.13 |  |
| COc1ccc(Nc2ccc(Oc3cc(OC)c(CNCCc4ccc(C(F)(F)F)cc4)c(OC)c3)cc2)cc1C | 5.25 | 2.34 | 7.09 | 6.97 |  |
| O=C(O)c1ccc(Nc2ccc([N+](=O)[O-])c3nonc23)cc1 |  |  |  |  | IC50 (c-Myc/c-Max): 33 µM |
| COc1cc(Oc2ccc(Nc3ccc(C(C)(C)C)cc3)cc2)cc(OC)c1CNCCc1ccc(C(F)(F)F)cc1 | 6.48 | 2.18 | 5.76 | 9.76 |  |
| COc1cc(Oc2ccc(Nc3ccc(C#N)cc3)cc2)cc(OC)c1CNCCc1ccc(C(F)(F)F)cc1 | 2.38 | 0.9 | 2.43 | 6.75 |  |
| COc1cc(Oc2ccc(Nc3ccc(SC)cc3)cc2)cc(OC)c1CNCCc1ccc(C(F)(F)F)cc1 | 3.79 | 1.72 | 2.13 | 8.36 |  |
| COC(=O)c1ccc(Nc2ccc(Oc3cc(OC)c(CNCCc4ccc(C(F)(F)F)cc4)c(OC)c3)cc2)cc1 | 5.98 | 1.28 | 4.35 | 7.34 |  |

| Structure (SMILES) | IC50 (HCT-116) [µM] | IC50 (HT-29 [3]) [µM] | IC50 (HCT-15) [µM] | IC50 (HCT-8) [µM] | other results |
| --- | --- | --- | --- | --- | --- |
| COc1ccc(Nc2ccc(Oc3cc(OC)c(CNCCc4ccc(C(F)(F)F)cc4)c(OC)c3)cc2)cc1 | 1.91 | 1.41 | 6.37 | 4.22 |  |
| COc1cc(Oc2ccc(-c3ccccc3)cc2)cc(OC)c1CNCCc1ccc(C(F)(F)F)cc1 | 2.8 | 1.41 | 1.55 | 6.98 |  |
| COc1cc(Oc2ccc(Nc3ccc(Br)cc3)cc2)cc(OC)c1CNCCc1ccc(C(F)(F)F)cc1 | 3.54 | 1.31 | 3.85 | 6.98 |  |
| COc1cc(Oc2ccc(Nc3ccc(CCO)cc3)cc2)cc(OC)c1CNCCc1ccc(C(F)(F)F)cc1 | 2.05 | 0.86 | 3.21 | 3.58 |  |
| COc1cc(Oc2ccc(Nc3ccc(C(F)(F)F)c(C(F)(F)F)c3)cc2)cc(OC)c1CNCCc1ccc(C(F)(F)F)cc1 | 1.64 | 2.35 | 2.12 | 6.98 |  |
| CCCCc1ccc(Nc2ccc(Oc3cc(OC)c(CNCCc4ccc(C(F)(F)F)cc4)c(OC)c3)cc2)cc1 | 3.1 | 1.75 | 4.86 | 4.98 |  |
| COc1cc(Oc2ccc(Nc3ccc(-c4cnc5ccccc5c4)cc3)cc2)cc(OC)c1CNCCc1ccc(C(F)(F)F)cc1 | 3.12 | 1.99 | 1.58 | 6.77 |  |
| COc1cc(Oc2ccc(Nc3ccc(C)cc3)cc2)cc(OC)c1CNCCc1ccc(C(F)(F)F)cc1 | 2.13 | 1.11 | 5.61 | 7.13 |  |
| COc1cc(Oc2ccc(Nc3ccccc3)cc2)cc(OC)c1CNCCc1ccc(C)cc1 | 4.01 | 2.83 | 5.88 | 10.2 |  |
| COc1cc(Oc2ccc(Nc3ccccc3)cc2)cc(OC)c1CNCCc1ccccn1 | 2.76 | 2.94 | 6.87 | 11.2 |  |
| COc1ccc(CCNCc2c(OC)cc(Oc3ccc(Nc4ccccc4)cc3)cc2OC)cc1OC | 2.62 | 1.54 | 3.54 | 6.32 |  |
| CCc1ccc(Nc2ccc(Oc3cc(OC)c(CNCCc4ccc(C(F)(F)F)cc4)c(OC)c3)cc2)cc1 | 3.87 | 1.51 | 5.54 | 4.58 |  |
| COc1cc(Oc2ccc(-c3ccc(F)cc3)cc2)cc(OC)c1CNCCc1ccc(C(F)(F)F)cc1 | 3.77 | 1.95 | 4.23 | 7.89 |  |
| CCCc1ccc(Nc2ccc(Oc3cc(OC)c(CNCCc4ccc(C(F)(F)F)cc4)c(OC)c3)cc2)cc1 | 3.23 | 1.6 | 5.62 | 4.1 |  |
| COc1cc(Oc2ccc(-c3ccc(Br)cc3)cc2)cc(OC)c1CNCCc1ccc(C(F)(F)F)cc1 | 2.71 | 2.57 | 2.23 | 8.75 |  |
| COc1cc(Oc2ccc(Nc3ccc(Cl)cc3)cc2)cc(OC)c1CNCCc1ccc(C(F)(F)F)cc1 | 3.53 | 1.29 | 5.31 | 4.1 |  |
| COc1cc(Oc2ccc(Nc3ccc(C(F)(F)F)c(F)c3)cc2)cc(OC)c1CNCCc1ccc(C(F)(F)F)cc1 | 1.74 | 1.42 | 2.34 | 8.63 |  |
| COc1cc(Oc2ccc(Nc3ccccc3)cc2)cc(OC)c1CNCCc1cccs1 | 3.85 | 2.65 | 7.56 | 10.8 |  |
| COc1cc(Oc2ccc(Nc3ccccc3)cc2)cc(OC)c1CNCCc1ccc(N)cc1 | 2.87 | 2.65 | 5.65 | 6.21 |  |
| COc1cc(Oc2ccc(-c3ccc(C(F)(F)F)cc3)cc2)cc(OC)c1CNCCc1ccc(C(F)(F)F)cc1 | 4.7 | 2.51 | 4.89 | 8.76 |  |
| COc1cc(Oc2ccc(Nc3ccccc3)cc2)cc(OC)c1CNCCc1ccc(O)cc1 | 3.46 | 2.75 | 4.54 | 6.78 |  |
| COc1cc(Oc2ccc(Nc3ccc(F)cc3)cc2)cc(OC)c1CNCCc1ccc(C(F)(F)F)cc1 | 3.4 | 1.47 | 6.23 | 5.32 |  |

From ChEMBL document CHEMBL5352446, “Synthesis and biological evaluation of a novel c-Myc inhibitor against colorectal cancer via blocking c-Myc/Max heterodimerization and disturbing its DNA binding” (Eur J Med Chem, 2022)
